From patent US11746374B2, “Methods and platform for screening and selecting metabolites and their receptors” (BOARD OF REGENTS, THE UNIVERSITY OF TEXAS SYSTEM, priority 2017, dated 2023)
Values joined by “and” are separate entries in the source; they are usually repeats but may differ in a detail not shown here. Identical values can stand only once. “Also recorded” adds a separate entry of the source.

Columns and labels:
P2X2 = target: T1, P2X2 (Homo sapiens, UniProt Q9UBL9); assay: Plate-based aequorin luminescence assay of P2X2 expressed in yeast; type: cell-based; set-up: expressed in transfected cells; host or cells: Saccharomyces cerevisiae BY4741 dCne1p, genome-integrated under the GAL1 promoter, aequorin on a high-copy plasmid; conditions: for agonism / gating of P2X2: aequorin luminescence; for EC50: dose-response, area under luminescence curve
T1 sequence (Q9UBL9 1-471): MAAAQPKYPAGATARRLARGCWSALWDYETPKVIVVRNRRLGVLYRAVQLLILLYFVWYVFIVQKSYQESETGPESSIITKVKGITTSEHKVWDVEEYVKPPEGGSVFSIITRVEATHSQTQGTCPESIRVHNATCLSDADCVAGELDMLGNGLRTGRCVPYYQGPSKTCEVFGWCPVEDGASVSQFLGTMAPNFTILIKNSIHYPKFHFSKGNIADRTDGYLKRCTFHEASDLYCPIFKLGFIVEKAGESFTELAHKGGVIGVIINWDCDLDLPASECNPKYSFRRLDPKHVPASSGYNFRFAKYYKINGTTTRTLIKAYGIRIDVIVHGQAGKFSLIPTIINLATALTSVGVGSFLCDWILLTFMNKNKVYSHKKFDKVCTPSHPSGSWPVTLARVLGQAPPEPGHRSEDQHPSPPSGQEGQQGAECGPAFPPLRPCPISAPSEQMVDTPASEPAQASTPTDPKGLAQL
Method: Ion channel activity in yeast was tested with the purinergic P2X ion channel family. Channel gating was assessed by an aequorin assay in which aequorin is co-expressed with the receptor and, upon addition of the prosthetic group coelenterazine and addition of calcium, blue light is released. The aequorin-based functional assay was performed in all seven P2X receptors (FIG. 8). P2X1-7 were integrated into the chromosome to mitigate copy number variation between clones and were induced with galactose with the pGal1 promoter. […] Among those receptors that didn't work, it was suspected that improvements in expression and trafficking can improve functionality. For example, by modulating trafficking domains within the P2X4 receptor, aggregation was reduced in vesicles (FIG. 9), and it is believed that this tactic can be employed in other receptors. […] This can be because P2X2 has the slowest desensitization rates of the family (and is often considered “non-desensitizing”) and has the highest unitary conductance (30 pS).
To determine whether or not this truncated channel gated in yeast, an aequorin-based functional assay was used. Here aequorin, a bioluminescent protein, emits a photon upon binding calcium. This is done with the aid of coelenterazine, which must be added exogenously to yeast. The reaction is not catalytic, and the off-rate of calcium is too slow to observe on the timescales utilized in our assays. To optimize conditions for expression of both the receptor and reporter, a combination of integration, low-copy, and high-copy vectors was used. At this point, it was only possible to produce a signal upon addition of ATP, the native ligand, when both the receptor and reporter were expressed on high-copy plasmids (FIG. 56).
BY4741ΔCne1p cells were transformed with vectors containing P2X variants. Transformants were validated and made competent for a subsequent transformation with a vector containing aequorin under the expression of the constitutive PGK2 promoter. Overnight cells were induced with 2% […] for 20 hours. Following receptor expression, cells were collected by centrifugation and concentrated to 500 μL. The concentrated cells were then incubated with 5 μL of 1 mg/mL coelenterazine for 30 minutes at room temperature. Washed cells were then resuspended in softening buffer (1 M Sorbitol, 25 mM EDTA, 50 mM DTT), followed by washes in 1 M sorbitol and water. Cells were then resuspended in 50 mM MES/Tris pH 6.5 and aliquoted into a 96-well plate. Using an F500, 25 μL of cells were monitored for luminescence for 5 seconds. Upon addition of ligand or buffer (100 μL), cells were monitored for luminescence for varying times. Cell lysis was performed with the addition of 100 μL Tween20. For inhibition, varying concentrations of suramin were incubated with cells. Luminescence was monitored before and after the addition of 100 μL of 10 μM ATP. Areas under the curve were calculated and plotted against a negative control to determine the IC50.

[1] = target: T2, 3,5,7-trioxododecanoyl-CoA synthase (OLS) (Cannabis sativa, UniProt B1Q2B6); conditions: cited from earlier work
T2 sequence (B1Q2B6 1-385): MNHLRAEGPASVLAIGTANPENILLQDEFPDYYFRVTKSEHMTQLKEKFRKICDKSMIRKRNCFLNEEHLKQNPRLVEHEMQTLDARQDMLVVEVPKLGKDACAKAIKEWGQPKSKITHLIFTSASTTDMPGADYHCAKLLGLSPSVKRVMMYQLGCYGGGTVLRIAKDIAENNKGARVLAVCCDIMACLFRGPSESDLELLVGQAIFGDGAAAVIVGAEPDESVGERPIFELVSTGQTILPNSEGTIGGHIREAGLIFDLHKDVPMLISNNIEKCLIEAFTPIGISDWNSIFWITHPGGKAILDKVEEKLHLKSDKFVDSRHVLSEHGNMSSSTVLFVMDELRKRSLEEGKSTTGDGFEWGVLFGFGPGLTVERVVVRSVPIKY

BY4741 = assay: Metabolite toxicity determined by growth assays; type: cell-based, Saccharomyces cerevisiae; conditions: 4 mM of each metabolite, compared to synthetic media only
Method: Measurements of cell density (OD600) were taken in 10 min intervals. Each condition was tested in triplicate. For hexanoate growth conditions of aromatic prenyltransferase variants, transformed cells were seeded for 48 hrs and diluted 1:25 in 96-well grow-blocks in media containing 1-5 mM hexanoate. Measurements of cell density were taken in 24 hr intervals using an F500 plate reader. Final screening was performed with 10 mM hexanoate, 1% acetate supplemented synthetic complete media in 50 mL culture volumes.

[2] = target: T3, cannabidiolic acid synthase (CBDA synthase) (Cannabis sativa, UniProt A6P6V9); conditions: cited from earlier work
T3 sequence (A6P6V9 29-544): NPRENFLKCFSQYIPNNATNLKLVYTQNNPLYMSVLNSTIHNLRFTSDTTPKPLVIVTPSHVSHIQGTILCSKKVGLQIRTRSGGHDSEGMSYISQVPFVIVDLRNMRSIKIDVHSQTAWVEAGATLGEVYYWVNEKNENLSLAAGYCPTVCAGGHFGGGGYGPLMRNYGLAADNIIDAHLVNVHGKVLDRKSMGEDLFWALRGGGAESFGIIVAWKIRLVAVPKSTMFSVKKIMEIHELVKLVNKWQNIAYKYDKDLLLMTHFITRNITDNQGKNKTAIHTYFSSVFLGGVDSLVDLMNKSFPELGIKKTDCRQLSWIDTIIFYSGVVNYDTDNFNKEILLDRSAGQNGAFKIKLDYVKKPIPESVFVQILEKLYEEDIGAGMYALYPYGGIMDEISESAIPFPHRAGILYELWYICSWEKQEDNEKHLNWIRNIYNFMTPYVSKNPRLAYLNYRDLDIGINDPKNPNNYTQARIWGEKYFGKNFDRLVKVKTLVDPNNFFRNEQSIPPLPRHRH

[3] = target: T4, Tetrahydrocannabinolic acid synthase (THCA synthase) WT (Cannabis sativa, UniProt Q8GTB6); conditions: cited from earlier work
T4 sequence (Q8GTB6 29-545): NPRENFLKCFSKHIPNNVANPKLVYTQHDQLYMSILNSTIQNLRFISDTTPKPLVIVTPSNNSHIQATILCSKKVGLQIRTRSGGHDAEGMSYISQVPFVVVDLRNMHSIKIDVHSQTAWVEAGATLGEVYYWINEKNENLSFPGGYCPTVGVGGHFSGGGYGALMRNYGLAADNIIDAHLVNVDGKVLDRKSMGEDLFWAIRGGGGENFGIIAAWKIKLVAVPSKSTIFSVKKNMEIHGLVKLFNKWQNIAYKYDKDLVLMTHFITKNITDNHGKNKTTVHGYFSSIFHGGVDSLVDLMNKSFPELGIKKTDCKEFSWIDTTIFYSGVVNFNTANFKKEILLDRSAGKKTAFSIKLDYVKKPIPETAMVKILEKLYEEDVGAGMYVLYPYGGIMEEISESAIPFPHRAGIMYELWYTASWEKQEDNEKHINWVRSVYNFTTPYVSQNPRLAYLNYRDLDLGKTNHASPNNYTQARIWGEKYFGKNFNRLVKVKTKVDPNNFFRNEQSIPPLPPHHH

[4] = target: T5, CsAAE1 Hexanoyl CoA Synthase (Cannabis sativa, UniProt H9A1V3); conditions: cited from earlier work
T5 sequence (H9A1V3 1-720): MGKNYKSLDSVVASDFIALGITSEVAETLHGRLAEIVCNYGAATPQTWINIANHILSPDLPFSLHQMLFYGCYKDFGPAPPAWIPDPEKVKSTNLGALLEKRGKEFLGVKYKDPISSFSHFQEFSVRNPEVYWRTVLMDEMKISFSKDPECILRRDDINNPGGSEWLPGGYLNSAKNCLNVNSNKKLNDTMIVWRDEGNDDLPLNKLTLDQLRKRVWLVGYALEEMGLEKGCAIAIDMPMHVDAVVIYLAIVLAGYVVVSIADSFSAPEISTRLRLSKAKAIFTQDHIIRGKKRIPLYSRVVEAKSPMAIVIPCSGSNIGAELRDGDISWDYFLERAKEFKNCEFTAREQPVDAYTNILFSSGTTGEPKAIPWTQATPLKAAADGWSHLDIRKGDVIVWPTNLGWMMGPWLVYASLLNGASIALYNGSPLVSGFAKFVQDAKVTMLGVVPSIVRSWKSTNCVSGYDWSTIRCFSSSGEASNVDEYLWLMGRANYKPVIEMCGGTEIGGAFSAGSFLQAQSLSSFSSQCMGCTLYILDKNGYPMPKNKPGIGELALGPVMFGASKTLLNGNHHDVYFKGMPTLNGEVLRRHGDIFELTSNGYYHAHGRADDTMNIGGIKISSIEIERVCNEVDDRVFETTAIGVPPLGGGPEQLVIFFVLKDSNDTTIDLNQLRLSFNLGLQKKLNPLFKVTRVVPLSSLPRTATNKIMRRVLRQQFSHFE

human CB2 receptor = target: T6, human CB2 receptor (Homo sapiens, UniProt P34972); type: cell-based; conditions: exogenously added ligand; GFP or zsGreen1 reporter
T6 construct: expressed in transfected cells; host or cells: Saccharomyces cerevisiae strains JG03-, JG04-, JG05-2.0 (zsGreen1 reporter), high-copy plasmid
Method: The ability of three of strains to couple to the human CB2 receptor expressed on a high-copy number plasmid was tested. Ga subunits that were predicted to couple to the receptor (Shim et al., 2013) were used. The dose-response of 2-arachidonyl glycerol, the native endocannabinoid, in strains differing only in the terminal 5 amino acids of the Gα protein. Control receptors were built that contained stop codons in the middle of the gene. These are referred to as ‘broken’ receptors.
Cells were washed 3 times and resuspended in PBS. Fluorescent (485 nm/515 nm) and cell density (600 nm) measurements were taken on a Cytation 5. Data were plotted and analyzed using SigmaPlot10. For CB2, strains JG03-, JG04-, and JG05-2.0 were transformed and treated the same. Broken receptor (stop codons) were also included in these assays.

wild-type CB2 receptor = wild-type CB2 receptor (Homo sapiens, UniProt P34972); conditions: Gertsch 2008; cited from earlier work
Sequence of wild-type CB2 receptor (P34972 whole entry): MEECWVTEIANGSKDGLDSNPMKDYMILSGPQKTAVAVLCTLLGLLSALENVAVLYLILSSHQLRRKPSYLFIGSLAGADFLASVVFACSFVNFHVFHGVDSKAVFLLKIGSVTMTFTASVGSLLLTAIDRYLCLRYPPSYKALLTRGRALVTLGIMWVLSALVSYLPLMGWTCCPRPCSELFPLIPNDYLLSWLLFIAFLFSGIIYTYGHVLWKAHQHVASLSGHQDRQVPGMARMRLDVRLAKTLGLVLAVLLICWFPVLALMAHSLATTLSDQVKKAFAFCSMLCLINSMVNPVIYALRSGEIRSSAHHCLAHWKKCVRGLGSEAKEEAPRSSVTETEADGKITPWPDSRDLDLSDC

T6 sequence (P34972 whole entry): as above

2′(3′)-O-(4-Benzoylbenzoyl)adenosine-5′-triphosphate [BzATP]
amplitude of generated signal lower than either ATP or 2-Cl-ATP (P2X2): 3 orders of magnitude | duration that the channel remains open, longer (P2X2): ~10 fold | peak amplitude relative to that achieved with ATP (P2X2): approximately 20% | agonism / gating of P2X2 (P2X2): partial agonism | EC50 (P2X2): 29.1 ± 6 µM

Nc1nc(Cl)nc2c1ncn2[C@@H]1O[C@H](COP(=O)(O)OP(=O)(O)OP(=O)(O)O)[C@@H](O)[C@H]1O [2-Chloro ATP, 2-Chloro-Adenosinetriphosphate]
agonism / gating of P2X2 (P2X2): full agonist behavior | EC50 (P2X2): 26.7 ± 1.5 µM

CCCCCC(=O)CC(=O)CC(=O)CC(=O)SCCNC(=O)CCNC(=O)[C@H](O)C(C)(C)COP(=O)(O)OP(=O)(O)OC[C@H]1O[C@@H](n2cnc3c(N)ncnc32)[C@H](O)[C@@H]1OP(=O)(O)O [3,5,7-trioxododecanoyl-CoA]
Km [1]: 56.9 µM | kcat [1]: 0.0577 s⁻¹

Nc1ncnc2c1ncn2[C@@H]1O[C@H](COP(=O)(O)OP(=O)(O)NP(=O)(O)O)[C@@H](O)[C@H]1O [AMP-PNP, adenylyl-imidodiphosphate]
agonism / gating of P2X2 (P2X2): did not gate P2X2

C=C(C)[C@@H]1CCC(C)=C[C@H]1c1c(O)cc(CCCCC)cc1O [CBD, cannabidiol]
effect on yeast growth (BY4741): modest growth defect; also recorded: far less inhibitory

CCCCCc1cc(O)c(C/C=C(\C)CCC=C(C)C)c(O)c1C(=O)O [CBGA, Cannabigerolic acid]
effect on yeast growth (BY4741): modest growth defect; also recorded: far less inhibitory | Km [2]: 137 µM | kcat [2]: 0.19 s⁻¹ | Km [3]: 134 µM | kcat [3]: .201 s⁻¹

CCCCCC(=O)O [Hexanoate, Hexanoic acid]
effect on yeast growth (BY4741): severely inhibit growth | effect on yeast growth (BY4741; listed as Hexanoic acid): strongly inhibit growth | Km [4]: 3700 µM | kcat [4]: 2.0 s⁻¹

CCCCCC(=O)SCCNC(=O)CCNC(=O)[C@H](O)C(C)(C)COP(=O)(O)OP(=O)(O)OC[C@H]1O[C@@H](n2cnc3c(N)ncnc32)[C@H](O)[C@@H]1OP(=O)(O)O [Hexanoyl-CoA]
Km [1]: 63.1 µM and 60.8 µM

CCCCCc1cc(O)cc(O)c1 [olivetol]
effect on yeast growth (BY4741): severely inhibit growth

CCCCCc1cc(O)cc(O)c1C(=O)O [olivetolic acid]
effect on yeast growth (BY4741): strongly inhibit growth

C=C1CC/C=C(\C)CC[C@@H]2[C@@H]1CC2(C)C [β-caryophyllene]
reporter response of CB2-expressing yeast to ligand (human CB2 receptor): dose-dependent up-regulation of GFP expression; also recorded: responded to high concentration | detectable level of activation with the wild-type CB2 receptor (wild-type CB2 receptor): 1.9 µM
